From patent US10669272B2, “Substituted naphthyridinone compounds useful as T cell activators” (BRISTOL-MYERS SQUIBB COMPANY, priority 2018, dated 2020)
pEC50, pIC50: −log10 of the molar value. Read-outs that look alike come from different tables or passages of the source.

How the values were obtained:
[1] = target: T1, human DGKζ (Homo sapiens, UniProt Q13574); experiment: DGKζ LIPGLO assay (extruded liposome substrate), in vitro DGK inhibition; assay type: biochemical; conditions: read-out: DGKz LIPGLO IC50
T1 construct: TVMV protease cleavage site (C); Hexa-His (C); made in house; host or cells: Sf9 insect cells (baculovirus, Bac-to-Bac)

[2] = target: T2, human DGKα (Homo sapiens, UniProt P23743); experiment: DGKα LIPGLO assay (extruded liposome substrate), in vitro DGK inhibition; assay type: biochemical; conditions: read-out: DGKa LIPGLO IC50
T2 construct: TVMV protease cleavage site (C); Hexa-His (C); made in house; host or cells: Sf9 insect cells (baculovirus, Bac-to-Bac)

[3] = test system: Human venous whole blood; experiment: Human whole blood IFN-γ assay; assay type: cell-based; conditions: human whole blood, read-out: INFg Whole Blood Normalized Agonist EC50;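 note: blood from healthy donors exposed to compound for 1 h before stimulation with anti-CD3 and anti-CD28 at 1 µg/mL each, IFN-γ quantified in supernatant by AlphaLISA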
[4] = Homo sapiens, 24 h, normalized to 3 μM reference compound with anti-CD3 plus anti-CD28 as 100% activation
[5] = anti-CD3 plus anti-CD28, 24 hours, 3 μM reference compound = 100% activation
[6] = Homo sapiens, 24 h, anti-CD3 plus anti-CD28, 24 hours, 3 μM reference compound = 100% activation
[7] = normalized to 3 μM reference compound with anti-CD3 plus anti-CD28 as 100% activation

T1 sequence (Q13574 with tags, fused parts or gaps isoform Q13574-4): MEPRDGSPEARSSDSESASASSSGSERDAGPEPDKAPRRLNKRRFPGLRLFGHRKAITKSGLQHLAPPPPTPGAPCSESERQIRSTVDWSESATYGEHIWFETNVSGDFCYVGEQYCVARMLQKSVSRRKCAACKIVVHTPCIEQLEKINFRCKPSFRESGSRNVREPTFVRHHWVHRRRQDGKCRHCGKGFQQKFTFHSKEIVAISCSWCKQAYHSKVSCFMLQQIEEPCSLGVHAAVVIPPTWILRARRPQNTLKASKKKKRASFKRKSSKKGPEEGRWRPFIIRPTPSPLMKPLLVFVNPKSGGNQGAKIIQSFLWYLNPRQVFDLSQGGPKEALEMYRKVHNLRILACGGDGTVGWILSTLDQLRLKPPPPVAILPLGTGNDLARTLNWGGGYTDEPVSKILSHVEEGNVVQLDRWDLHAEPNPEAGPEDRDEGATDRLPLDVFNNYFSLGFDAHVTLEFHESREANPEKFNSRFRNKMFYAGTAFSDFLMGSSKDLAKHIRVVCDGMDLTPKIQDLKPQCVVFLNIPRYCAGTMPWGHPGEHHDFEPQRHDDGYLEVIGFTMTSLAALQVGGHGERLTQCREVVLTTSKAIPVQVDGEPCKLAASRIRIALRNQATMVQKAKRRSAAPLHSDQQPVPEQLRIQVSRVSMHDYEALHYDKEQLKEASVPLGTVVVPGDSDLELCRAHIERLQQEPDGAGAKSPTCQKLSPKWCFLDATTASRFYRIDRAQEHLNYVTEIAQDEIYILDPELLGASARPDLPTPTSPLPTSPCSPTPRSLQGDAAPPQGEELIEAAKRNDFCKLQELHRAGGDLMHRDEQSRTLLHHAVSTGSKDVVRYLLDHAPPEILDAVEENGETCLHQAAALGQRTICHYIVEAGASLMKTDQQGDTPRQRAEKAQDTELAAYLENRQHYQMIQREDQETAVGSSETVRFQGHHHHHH
T2 sequence (P23743 with tags, fused parts or gaps): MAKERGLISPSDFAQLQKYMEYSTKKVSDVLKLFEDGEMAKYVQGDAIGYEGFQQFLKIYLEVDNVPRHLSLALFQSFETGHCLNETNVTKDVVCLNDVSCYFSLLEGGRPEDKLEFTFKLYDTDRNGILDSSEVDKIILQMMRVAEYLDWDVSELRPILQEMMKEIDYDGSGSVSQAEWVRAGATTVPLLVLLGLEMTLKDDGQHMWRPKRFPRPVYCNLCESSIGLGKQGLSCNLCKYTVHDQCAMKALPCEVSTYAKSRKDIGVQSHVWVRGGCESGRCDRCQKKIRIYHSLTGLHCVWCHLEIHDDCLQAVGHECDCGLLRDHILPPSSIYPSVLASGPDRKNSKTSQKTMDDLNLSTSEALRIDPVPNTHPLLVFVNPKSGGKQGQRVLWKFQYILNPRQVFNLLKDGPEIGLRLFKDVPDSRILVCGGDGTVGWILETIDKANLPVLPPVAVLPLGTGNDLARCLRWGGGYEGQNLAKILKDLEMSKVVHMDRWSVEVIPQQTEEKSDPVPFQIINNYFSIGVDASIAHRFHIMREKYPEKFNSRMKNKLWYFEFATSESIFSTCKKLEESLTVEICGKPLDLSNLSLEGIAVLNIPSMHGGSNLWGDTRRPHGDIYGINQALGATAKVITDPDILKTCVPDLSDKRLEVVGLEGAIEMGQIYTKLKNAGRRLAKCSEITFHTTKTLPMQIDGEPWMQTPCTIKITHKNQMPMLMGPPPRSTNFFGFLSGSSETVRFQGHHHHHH

Row | SMILES | pIC50 ([1]; liposome (LIPGLO) assay) | pIC50 ([2]; liposome (LIPGLO) assay) | pIC50 ([1]; DGKζ liposome (LIPGLO) assay) | pIC50 ([2]; DGKα liposome (LIPGLO) assay) | pEC50 [3, 4] | pEC50 [3, 5] | pEC50 [3, 6] | pEC50 [3, 7]
1 | C[C@@H]1CN(c2cc(=O)n(C)c3ccc(C#N)nc23)[C@@H](C)CN1C(c1ccc(F)cc1)c1ccnc(C(C)(C)C)n1 (single isomer, unassigned) [Example 408] | 6.10 | 5.12 |  |  | 6.10 |  |  | 
2 | CC[C@H]1CN(C(c2ccc(F)cc2)c2cc(C3CC3)on2)[C@H](CC)CN1c1cc(=O)n(C)c2ccc(C#N)nc12 (single isomer, unassigned) [Example 1074] | 7.33 | 7.36 |  |  | 7.38 |  |  | 
3 | CC(c1cc(OC(F)F)ccc1F)N1C[C@H](C)N(c2cc(=O)n(C)c3ccc(C#N)nc23)C[C@H]1C (single isomer, unassigned) [Example 1229] | 6.80 | 6.52 |  |  | 6.29 |  |  | 
4 | C[C@@H]1CN(c2c(C#N)c(=O)n(C)c3ccc(C#N)nc23)CCN1C(c1ccc(F)cc1)c1cnsc1 (stereo partly drawn) [Example 1028] | 5.15 | 5.82 |  |  | 5.55 |  |  | 
5 | C[C@@H]1CN(c2c(C#N)c(=O)n(C)c3ccc(C#N)nc23)[C@@H](C)CN1C(c1ccc(F)cc1)c1ccon1 (single isomer, unassigned) [Example 850] |  |  | 5.27 | 6.29 |  | 5.44 |  | 
6 | CC(c1ccc(F)cc1)N1CCN(c2c(C#N)c(=O)n(C)c3ccc(C#N)nc23)C[C@H]1C (single isomer, unassigned) [Example 957] |  |  | 5.07 | 6.59 |  | 5.77 |  | 
7 | C[C@@H]1CN(c2c(C#N)c(=O)n(C)c3ccc(C#N)nc23)[C@@H](C)CN1C(c1ccccc1)c1ccc(F)cc1 (stereo partly drawn) [Example 808] |  |  | 5.80 | 5.38 |  | 5.89 |  | 
8 | C[C@@H]1CN(c2cc(=O)n(C)c3ccc(C#N)nc23)[C@@H](C)CN1C(c1ccc(F)c(F)c1)c1ccccn1 (mixture of isomers) [Example 366, 8-((2S,5R)-4-((3,4-difluorophenyl)(pyridin-2-yl)methyl)-2,5-dimethylpiperazin-1-yl)-5-methyl-6-oxo-5,6-dihydro-1,5-naphthyridine-2-carbonitrile] | 5.70 | 6.24 |  |  | 6.31 |  |  | 
9 | C[C@@H]1CN(c2cc(=O)n(C)c3ccc(C#N)nc23)[C@@H](C)CN1C(c1cccc(F)c1)c1cccc2c1OCCCO2 (single isomer, unassigned) [Example 445] | 6.38 | 4.40 |  |  | 5.59 |  |  | 
10 | CC[C@H]1CN(C(C)c2ccc(OC(F)F)cc2)[C@H](C)CN1c1cc(=O)n(C)c2ccc(C#N)nc12 (single isomer, unassigned) [Example 1145] | 6.07 | 6.51 |  |  |  |  |  | 5.48
11 | COc1ccc(OC(F)(F)F)cc1CN1C[C@H](C)N(c2cc(=O)n(C)c3ccc(C#N)nc23)C[C@H]1C [Example 601] | 5.11 | 5.68 |  |  | 5.48 |  |  | 
12 | C[C@@H]1CN(c2c(C#N)c(=O)n(C)c3ccc(C#N)nc23)[C@@H](C)CN1C(c1ccc(F)cc1)c1ccc(C#N)cc1 (single isomer, unassigned) [Example 824] |  |  | 4.96 | 4.80 |  | 5.49 |  | 
13 | C[C@@H]1CN(c2cc(=O)[nH]c3ccc(C#N)nc23)[C@@H](C)CN1C(c1ccc(F)cc1)c1ccc(C#N)cc1 (stereo partly drawn) [Example 1336, 8-((2S,5R)-4-((4-cyanophenyl)(4-fluorophenyl)methyl)-2,5-dimethylpiperazin-1-yl)-6-oxo-5,6-dihydro-1,5-naphthyridine-2-carbonitrile] | 4.85 | 5.74 |  |  | 4.96 |  |  | 
14 | CCC(c1ccc(OC(F)(F)F)cc1F)N1C[C@H](CC)N(c2cc(=O)n(C)c3ccc(C#N)nc23)C[C@H]1C (single isomer, unassigned) [Example 1377] | 6.57 | 7.54 |  |  |  |  |  | 5.70
15 | CC(c1ccc(F)cc1F)N1CCN(c2c(C#N)c(=O)n(C)c3ccc(C#N)nc23)C[C@H]1C (single isomer, unassigned) [Example 970] |  |  | 4.55 | 6.06 |  | 4.96 |  | 
16 | Cc1cc(C(c2ccc(F)cc2)N2C[C@H](C)N(c3c(C#N)c(=O)n(C)c4ccc(C#N)nc34)C[C@H]2C)no1 (single isomer, unassigned) [Example 864] |  |  | 6.00 | 6.77 |  |  | 5.19 | 
17 | C[C@@H]1CN(c2cc(=O)n(C)c3ccc(C#N)nc23)[C@@H](C)CN1C(c1ccc(F)cc1)c1nc(C2CN(C(=O)OC(C)(C)C)C2)no1 (single isomer, unassigned) [Example 756] |  |  | 5.72 | 6.72 |  | 5.22 |  | 
18 | Cc1ccc(C)c(C(C)N2CCN(c3c(C#N)c(=O)n(C)c4ccc(C#N)nc34)C[C@H]2C)c1 (single isomer, unassigned) [Example 976] |  |  | 5.19 | 4.77 |  | 4.70 |  | 
19 | COc1cc(F)ccc1C(C)N1C[C@H](C)N(c2cc(=O)n(C)c3ccc(C#N)nc23)C[C@H]1C (single isomer, unassigned) [Example 1236] | 7.37 | 4.96 |  |  |  |  |  | 5.89
20 | C[C@@H]1CN(c2cc(=O)n(C)c3ccc(C#N)nc23)[C@@H](C)CN1C(c1ccc(F)cc1)c1c(F)cc(F)cc1F (single isomer, unassigned) [Example 693] | 6.24 | 5.66 |  |  |  |  |  | 6.54
21 | C[C@@H]1CN(c2c(C#N)c(=O)n(C)c3ccc(C#N)nc23)[C@@H](C)CN1C(c1ccc(F)cc1)c1cc(C(C)(C)C)on1 (single isomer, unassigned) [Example 866] |  |  | 6.03 | 6.41 |  | 5.64 |  | 

Continued, in another order:

Row | pIC50 ([1]; liposome (LIPGLO) assay) | pIC50 ([2]; liposome (LIPGLO) assay) | pIC50 ([1]; DGKζ liposome (LIPGLO) assay) | pIC50 ([2]; DGKα liposome (LIPGLO) assay) | SMILES | pEC50 [3, 4] | pEC50 [3, 5] | pEC50 [3, 6] | pEC50 [3, 7]
22 |  |  | 6.51 | 5.60 | Cc1ccc(C(c2ccc(C)cc2)N2CCN(c3c(C#N)c(=O)n(C)c4ccc(C#N)nc34)C[C@H]2C)cc1 [Example 870] |  |  | 5.85 | 
23 | 6.37 | 4.96 |  |  | C[C@@H]1CN(C(c2ccc(F)cc2)c2ccc(Cl)cc2)[C@@H](CO)CN1c1cc(=O)n(C)c2ccc(C#N)nc12 (single isomer, unassigned) [Example 1174] | 5.85 |  |  | 
24 | 5.27 | 7.21 |  |  | C[C@@H]1CN(c2cc(=O)n(C)c3ccc(C#N)nc23)[C@@H](C)CN1C(c1ccc(F)cc1)c1ncccn1 (stereo partly drawn) [Example 676] | 5.74 |  |  | 
25 | 7.30 | 6.05 |  |  | CCOC[C@@H]1CN(c2cc(=O)n(C)c3ccc(C#N)nc23)[C@@H](C)CN1C(c1ccc(F)cc1)c1ccc(C(F)(F)F)cn1 (stereo partly drawn) [Example 1404] |  |  |  | 6.05
26 | 6.52 | 6.24 |  |  | CC[C@@H]1CN(c2cc(=O)n(C)c3ccc(C#N)nc23)[C@@H](C)CN1C(c1ccc(C)cc1)c1ccc(C)cc1 [Example 1098] | 6.82 |  |  | 
27 | 4.85 | 6.17 |  |  | C[C@@H]1CN(c2cc(=O)n(C)c3ccc(C#N)nc23)[C@@H](C)CN1C(c1ccc(F)cc1)c1cocn1 (single isomer, unassigned) [Example 709] |  |  |  | 5.68
28 |  |  | 5.03 | 5.01 | Cc1ccc(C(c2ccc(Cl)cc2)N2CCN(c3c(C#N)c(=O)n(C)c4ccc(C#N)nc34)C[C@H]2C)cc1 (single isomer, unassigned) [Example 945] |  | 5.80 |  | 
29 | 7.35 | 5.96 |  |  | CCOC[C@@H]1CN(c2cc(=O)n(C)c3ccc(C#N)nc23)[C@@H](C)CN1C(c1ccc(F)cc1)c1ccc(C(F)(F)F)cn1 (stereo partly drawn) [Example 1403] |  |  |  | 5.72
30 | 6.80 | 6.57 |  |  | CC[C@@H]1CN(c2cc(=O)n(C)c3ccc(C#N)nc23)[C@@H](C)CN1C(c1ccc(F)cc1)c1nc(C2CC2)cs1 (single isomer, unassigned) [Example 1339] |  |  |  | 7.00
31 | 5.92 | 6.59 |  |  | C[C@@H]1CN(c2cc(=O)n(C)c3ccc(C#N)nc23)[C@@H](C)CN1C(c1ccc(F)cc1)c1cc(F)ccn1 (single isomer, unassigned) [Example 474] |  |  |  | 6.59
32 | 7.36 | 7.85 |  |  | CC[C@H]1CN(C(c2ccc(F)cc2)c2cscn2)[C@H](CC)CN1c1cc(=O)n(C)c2ccc(C#N)nc12 (single isomer, unassigned) [Example 1071] |  |  |  | 6.72
